Source: PubChem BioAssay (NCI)
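Interpolation was linear, between the two tested concentrations surrounding the appropriate level; five concentrations were tested over 48 hours in 96-well plates. Here, GI50 denotes the concentration required for 50% inhibition of growth. TGI denotes the concentration required for complete inhibition of growth.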

Experiments:
Test in all cases: NCI tumour cell line growth inhibition, 48 h
BT-549 breast = tested on: BT-549 breast
HL-60(TB) leukemia = tested on: HL-60(TB) leukemia
LOX IMVI melanoma = tested on: LOX IMVI melanoma
MALME-3M melanoma = tested on: MALME-3M melanoma
MDA-MB-435 = tested on: MDA-MB-435
NCI/ADR-RES ovarian = tested on: NCI/ADR-RES ovarian
OVCAR-3 ovarian = tested on: OVCAR-3 ovarian
SNB-75 CNS = tested on: SNB-75 CNS
T-47D breast = tested on: T-47D breast
TK-10 renal = tested on: TK-10 renal

Row | Compound | TGI (BT-549 breast) [µM] | TGI (HL-60(TB) leukemia) [µM] | TGI (LOX IMVI melanoma) [µM] | TGI (MALME-3M melanoma) [µM] | TGI (MDA-MB-435) [µM] | TGI (NCI/ADR-RES ovarian) [µM] | TGI (OVCAR-3 ovarian) [µM] | TGI (SNB-75 CNS) [µM] | TGI (T-47D breast) [µM] | TGI (TK-10 renal) [µM] | GI50 (LOX IMVI melanoma) [µM] | GI50 (MALME-3M melanoma) [µM] | GI50 (SNB-75 CNS) [µM] | GI50 (TK-10 renal) [µM] | GI50 (BT-549 breast) [µM] | GI50 (HL-60(TB) leukemia) [µM] | GI50 (MDA-MB-435) [µM] | GI50 (NCI/ADR-RES ovarian) [µM] | GI50 (OVCAR-3 ovarian) [µM] | GI50 (T-47D breast) [µM]
1 | N#C/C=C1\C=CC(O)C(O)C1OC1OC(CO)C(O)C(O)C1O (stereo not drawn) | > 100 | > 100 | > 100 | > 100 | > 100 | > 100 | > 100 | > 100 | > 100 | > 100 | – | – | – | – | – | – | – | – | – | –
2 | O=S(=O)(c1ccc(I)cc1)N(c1ccccc1)S(=O)(=O)C(F)(F)C(F)(F)C(F)(F)C(F)(F)F | > 100 | > 100 | > 100 | > 100 | > 100 | > 100 | 50.9 | – | > 100 | 73.5 | – | – | – | – | – | – | – | – | – | –
3 | O=S(=O)(O)c1c(N=Nc2c(O)ccc3ccccc23)ccc2ccccc12 | > 100 | – | > 100 | > 100 | > 100 | > 100 | > 100 | > 100 | > 100 | > 100 | – | – | – | – | – | – | – | – | – | –
4 | O=C(O)C1CC(c2ccccc2)=NN1c1ccccc1 (stereo not drawn) | > 100 | > 100 | > 100 | 96.4 | > 100 | > 100 | > 100 | > 100 | > 100 | > 100 | – | – | – | – | – | – | – | – | – | –
5 | COc1cccc(-c2nc3c(C(=O)NCCN(C)C)cccc3[nH]2)c1 | – | 41.2 | 34.9 | 27.6 | – | 44.1 | > 75.9 | 68.1 | – | – | – | – | – | – | – | – | – | – | – | –
6 | O=C1/C(=C\c2ccc(-c3ccc(Cl)cc3Cl)o2)SC2N=C(COc3ccc(Cl)cc3)NN12 (stereo not drawn) | > 100 | > 100 | > 100 | > 100 | > 100 | > 100 | > 100 | > 100 | > 100 | 18.3 | – | – | – | – | – | – | – | – | – | –
7 | S=C1N(c2ccc(Cl)cc2)C2=C(N=Nc3ccccc3)C(=Nc3ccccc3S2)N1c1ccccn1 | 23.1 | 28.1 | 24.4 | 19.8 | 26.7 | 33.4 | 27.2 | 49.2 | 0.899 | 28 | – | – | – | – | – | – | – | – | – | –
8 | [C-]#[O+].[C-]#[O+].[Ir].[O-]c1cccc2cccnc12 | – | – | > 100 | > 100 | – | – | – | > 100 | – | > 100 | > 100 | > 100 | > 100 | > 100 | – | – | – | – | – | –
9 | O=S(O)c1cc(Cl)cc(Cl)c1O | – | > 100 | > 100 | > 100 | – | – | > 100 | > 100 | – | > 100 | – | – | – | – | – | – | – | – | – | –
10 | COc1ccc(SC(C)(SC)c2ccccn2)c(OC)n1 (stereo not drawn) | > 100 | 28.3 | > 100 | > 100 | > 100 | > 100 | > 100 | – | – | > 100 | – | – | – | – | – | – | – | – | – | –
11 | Oc1cc2cccc[n+]2c2cccc(Cl)c12 | – | – | – | 40.4 | 40.8 | – | – | – | – | – | – | 18.4 | – | – | 50.6 | 35.8 | 17.4 | – | – | –
12 | c1ccc2sc(C3(N4CCCCC4)CCCC3)cc2c1 | 27.5 | 19.1 | 32.7 | 29.1 | 29.4 | 24.8 | 21.8 | 30.6 | – | 28.5 | – | – | – | – | – | – | – | – | – | –
13 | CC1(C)COC(/C=C/C2=NC(C)(C)CO2)=N1 | 49.8 | 49.4 | 16.7 | 41.9 | 82.9 | 84 | 30.8 | > 100 | 34 | 27.2 | – | – | – | – | – | – | – | – | – | –
14 | O=C1c2ccccc2-c2ccc(N=[N+]([O-])c3ccc4c(c3)C(=O)c3ccccc3-4)cc21 | > 100 | > 100 | > 100 | > 100 | > 100 | > 100 | > 100 | > 100 | > 100 | > 100 | – | – | – | – | – | – | – | – | – | –
15 | CC(O)C(O)C(N)CC=O (stereo not drawn) | – | > 500 | > 500 | > 500 | – | > 500 | > 500 | > 500 | – | – | – | – | – | – | – | – | – | – | – | –
16 | COC(=O)C1=CC[C@@H]2C(C(=O)O)=CO[C@@H](OC3OC(CO)C(O)C(O)C3O)[C@H]12 (stereo partly drawn) | – | > 300 | > 300 | > 300 | – | > 300 | > 300 | > 300 | – | – | – | – | – | – | – | – | – | – | – | –
17 | O=C(/C=C/c1ccc(O)cc1)NCCc1ccc(O)cc1 | > 12.5 | > 12.5 | > 12.5 | > 12.5 | > 12.5 | > 12.5 | > 12.5 | – | > 12.5 | > 12.5 | – | – | – | – | – | – | – | – | – | –
18 | CC(=O)OCC1OC(O[C@@H]2c3c(O)c4c(c(O)c3C3=C(NN(c5ccc([N+](=O)[O-])cc5[N+](=O)[O-])[Se]3=O)[C@@]2(C)O)C(=O)c2ccccc2C4=O)C(OC(C)=O)C(OC(C)=O)C1OC(C)=O (stereo partly drawn) | 4.23 | – | 0.319 | 0.355 | 0.332 | 3.86 | 0.336 | 6.24 | 1.46 | 2.05 | – | – | – | – | – | – | – | – | – | –
19 | CN(C)Cc1ccc(C(=O)Nc2ccc3ncnc(Nc4ccc(Oc5cccc(F)c5)c(Cl)c4)c3c2)cc1 | – | 3.7 | 3.15 | 3.01 | 3.25 | 3.45 | 2.92 | 2.84 | – | – | 1.69 | 1.53 | 1.48 | – | – | 1.91 | 1.74 | 1.67 | 1.5 | –
20 | C[N+]1(C)CCC(C#N)(c2ccccc2)CC1 | – | > 100 | – | > 100 | – | > 100 | – | > 100 | > 100 | > 100 | – | – | – | – | – | – | – | – | – | –
21 | CC(C)C(N=Cc1ccccc1O)C(=O)O (stereo not drawn) | > 100 | > 100 | > 100 | > 100 | > 100 | > 100 | > 100 | – | > 100 | > 100 | – | – | – | – | – | – | – | – | – | –
22 | Fc1ccc(-c2ccc(-c3nnc(-c4cc(F)c(Cl)cc4Cl)o3)o2)cc1Cl | – | > 100 | 48.9 | 59 | > 100 | > 100 | 72.5 | > 100 | 45.1 | > 100 | 20.8 | 18.8 | 30.6 | 27.2 | – | > 100 | 34.6 | 35.8 | 21.9 | 13.7
